The target of experiment [1] is T1, human cloned 5-HT2A receptor, expressed in L929 cells (Homo sapiens, UniProt P28223).
T1 construct: expressed in transfected cells; host or cells: L929 cells
Nature of the experiment: In vitro binding affinity for 5-HT2A receptor ([125I]R91150 radioligand binding). Particulars: human cloned 5-HT2A receptor in L929 cells, [125I]R91150; for IC50: read-out: 5-HT2A pIC50 (converted). Summed up: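 Competition radioligand binding to human cloned 5-HT2A receptor expressed in L929 cells, using [125I]R91150 with test compound at various concentrations. At equilibrium, receptor-bound radioactivity was separated from free and counted. Affinity reflects inhibition of radioligand binding.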

Experiment [2] concerns the target T2, NET (norepinephrine transporter) (Rattus norvegicus, UniProt Q63380).
T2 construct: Cortex from rat brain was collected and homogenised; from tissue; host or cells: rat brain cortex
The experiment can be described thus: In vitro determination of NET reuptake inhibition ([3H]Nixosetine binding, rat brain cortex). The following applies: rat brain cortex; for IC50: read-out: NET pIC50 (converted). The procedure, abridged: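 Rat cortex homogenised in Tris 50 mM, NaCl 120 mM, KCl 5 mM, pH 7.4 was used for competition binding against [3H]nisoxetine. Bound radioligand was collected by filtration on GF/B filters and counted by scintillation. Percentage specific binding and competition curves were derived.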

For experiment [3], the target named is T3, human cloned 5-HT2C receptor, expressed in CHO cells (Homo sapiens, UniProt P28335).
T3 construct: expressed in transfected cells; host or cells: CHO cells
T3 sequence (P28335 33-458): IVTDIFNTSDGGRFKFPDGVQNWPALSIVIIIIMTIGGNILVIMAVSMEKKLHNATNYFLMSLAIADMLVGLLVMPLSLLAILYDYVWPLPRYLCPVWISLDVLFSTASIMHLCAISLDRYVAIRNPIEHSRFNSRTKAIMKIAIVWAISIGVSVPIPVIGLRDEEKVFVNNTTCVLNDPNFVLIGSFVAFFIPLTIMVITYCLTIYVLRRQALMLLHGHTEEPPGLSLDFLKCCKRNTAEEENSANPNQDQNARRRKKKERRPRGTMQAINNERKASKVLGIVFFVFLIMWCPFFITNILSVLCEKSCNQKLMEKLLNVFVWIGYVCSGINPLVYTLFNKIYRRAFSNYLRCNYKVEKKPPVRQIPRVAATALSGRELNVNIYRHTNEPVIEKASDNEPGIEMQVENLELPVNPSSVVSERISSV
The experiment can be described thus: In vitro binding affinity for 5-HT2C receptor ([3H]mesulergine radioligand binding). Particulars: human cloned 5-HT2C receptor; for IC50: read-out: 5-HT2C pIC50 (converted). Summed up:
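Competition radioligand binding: varying test-compound concentrations incubated with receptor preparation and radioligand to binding equilibrium. Bound radioactivity separated from free and counted; affinity inferred from concentration-dependent inhibition of radioligand binding.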

Experiment [4] has as its target T4, human Dopamine D2L receptor (Homo sapiens, UniProt P14416).
T4 construct: expressed in transfected cells; host or cells: CHO cells
Nature of the experiment: In vitro binding affinity for human D2L receptor ([3H]Spiperone binding). Particulars: human D2L receptor-transfected CHO cell membranes; for IC50: read-out: D2L pIC50 (converted). The procedure, abridged: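 Membranes from CHO cells transfected with the receptor were incubated with [3H]Spiperone (diluted to 2 nmol/L before addition) and compound for 30 min at 37° C. Buffer was Tris-HCl, pH 7.7, with NaCl, CaCl2, MgCl2 and KCl, and non-specific binding was defined with 10^−6 mol/l Butaclamol. Bound radioactivity was collected by filtration, counted by scintillation, and competition curves calculated as percent specific binding.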

Consider 26 compounds from patent publication US8569267B2, “Tetracyclic tetrahydrofuran derivatives containing cyclic amine side chain” (Janssen Pharmaceutica, NV, priority 2005, dated 2013).

T4 sequence (P14416 whole entry): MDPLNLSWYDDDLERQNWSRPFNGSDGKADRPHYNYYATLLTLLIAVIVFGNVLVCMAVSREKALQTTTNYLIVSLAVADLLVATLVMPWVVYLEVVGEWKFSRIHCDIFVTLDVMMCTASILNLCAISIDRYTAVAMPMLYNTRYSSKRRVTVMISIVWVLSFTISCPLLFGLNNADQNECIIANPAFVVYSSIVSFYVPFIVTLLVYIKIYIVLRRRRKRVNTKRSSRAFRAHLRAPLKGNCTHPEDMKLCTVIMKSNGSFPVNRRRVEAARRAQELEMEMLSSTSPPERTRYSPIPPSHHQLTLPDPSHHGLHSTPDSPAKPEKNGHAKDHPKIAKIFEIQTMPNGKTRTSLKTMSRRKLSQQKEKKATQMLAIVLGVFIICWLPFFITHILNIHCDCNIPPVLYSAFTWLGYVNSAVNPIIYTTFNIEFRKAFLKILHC
T1 sequence (P28223 whole entry): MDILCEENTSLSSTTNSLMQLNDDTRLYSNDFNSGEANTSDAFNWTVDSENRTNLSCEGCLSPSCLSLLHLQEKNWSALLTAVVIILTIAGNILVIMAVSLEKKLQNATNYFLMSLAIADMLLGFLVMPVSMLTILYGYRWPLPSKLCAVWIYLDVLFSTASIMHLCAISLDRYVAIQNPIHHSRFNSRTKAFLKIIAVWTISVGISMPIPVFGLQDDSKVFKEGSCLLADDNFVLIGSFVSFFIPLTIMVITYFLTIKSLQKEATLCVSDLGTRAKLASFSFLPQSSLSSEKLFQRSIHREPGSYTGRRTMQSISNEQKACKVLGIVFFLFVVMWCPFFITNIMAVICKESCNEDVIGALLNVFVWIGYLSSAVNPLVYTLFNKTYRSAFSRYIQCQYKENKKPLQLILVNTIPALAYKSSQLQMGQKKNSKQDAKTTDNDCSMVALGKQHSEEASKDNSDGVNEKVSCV
T2 sequence (Q63380 1-617): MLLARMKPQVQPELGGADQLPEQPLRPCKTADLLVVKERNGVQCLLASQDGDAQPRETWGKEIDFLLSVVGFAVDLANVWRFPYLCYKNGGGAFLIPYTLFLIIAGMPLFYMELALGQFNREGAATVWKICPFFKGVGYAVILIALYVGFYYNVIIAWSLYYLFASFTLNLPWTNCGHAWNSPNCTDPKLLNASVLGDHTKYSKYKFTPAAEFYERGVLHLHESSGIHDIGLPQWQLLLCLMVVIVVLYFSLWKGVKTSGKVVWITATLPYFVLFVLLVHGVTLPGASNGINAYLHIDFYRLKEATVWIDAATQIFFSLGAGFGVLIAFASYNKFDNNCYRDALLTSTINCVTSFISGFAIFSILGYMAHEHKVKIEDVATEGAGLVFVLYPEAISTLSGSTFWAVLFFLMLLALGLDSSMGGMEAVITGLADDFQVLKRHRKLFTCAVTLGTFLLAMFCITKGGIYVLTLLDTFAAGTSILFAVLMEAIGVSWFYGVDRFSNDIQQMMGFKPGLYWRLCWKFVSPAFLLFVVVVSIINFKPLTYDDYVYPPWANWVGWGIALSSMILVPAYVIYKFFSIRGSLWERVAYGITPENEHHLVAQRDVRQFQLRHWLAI

Turning to `O=C(NCCCn1ccnc1)C1CCN(CC2CC3c4ccccc4Cc4ccc(F)cc4C3O2)CC1` (centres unmarked) [Compound 180], the IC50 is 2.45 nM in experiment [1], more than 10000 nM in experiment [2], 3.89 nM in experiment [3] and 37.2 nM in experiment [4].
`O=C(NCc1ccc(F)cc1)N1CCN(CC2CC3c4ccccc4Cc4ccc(F)cc4C3O2)CC1` (centres unmarked) [Compound 99]: the IC50 in experiment [1] is 3.16 nM; in experiment [2], more than 10000 nM; in experiment [3] it was 8.13 nM; in experiment [4] it was 11.5 nM.
Turning to `CCOC(=O)C=C1CCN(CC2CC3c4ccccc4Cc4ccc(F)cc4C3O2)CC1` (centres unmarked) [Compound 165], the IC50 in experiment [1] was 10.7 nM; in experiment [2], 3630 nM; in experiment [3] it was 27.5 nM; in experiment [4], 38.9 nM.
Turning to `Fc1ccc2c(c1)C1OC(CN3CCN(Cc4ccc(-c5ccc(Cl)cc5)o4)CC3)CC1c1ccccc1C2` (centres unmarked) [Compound 62], the IC50 is 47.9 nM in experiment [1], 3470 nM in experiment [2], 107 nM in experiment [3] and 75.9 nM in experiment [4].
On to `CN(C)C(=O)CC1CN(C[C@H]2C[C@@H]3c4ccccc4Cc4ccc(F)cc4[C@@H]3O2)CCO1` (some centres unmarked) [Compound 136], for which the IC50 in experiment [1] is 1.58 nM; in experiment [2], 70.8 nM; in experiment [3] it was 3.31 nM; in experiment [4] it was 24.5 nM.
Regarding `CCN(CC)CCN(C)C(=O)C1CCN(CC2CC3c4ccccc4Cc4ccc(F)cc4C3O2)CC1` (centres unmarked) [Compound 199], the IC50 in experiment [1] was 6.46 nM; in experiment [2], more than 10000 nM; in experiment [3], 1.2 nM; in experiment [4] it was 35.5 nM.
For `COc1cccc(N2CCN(CC3CC4c5ccccc5Cc5ccc(F)cc5C4O3)CC2)n1` (centres unmarked) [Compound 118], in that order: 4.9 nM, 2820 nM, 7.59 nM and 26.3 nM.
Consider `O=C(NC1CCN(CC2CC3c4ccccc4Cc4ccc(F)cc4C3O2)CC1)c1ccc(Cl)cc1Cl` (centres unmarked) [Compound 230], for which the IC50 in experiment [1] is 2.95 nM; in experiment [2], 5750 nM; in experiment [3], 12.6 nM; in experiment [4], 6.03 nM.
For `O=C(Nc1ccccc1)OCC1CCN(CC2CC3c4ccccc4Cc4ccc(F)cc4C3O2)C1` (mixture of isomers) [Compound 22], in that order: 3.09 nM, 2510 nM, 3.72 nM and 5.01 nM.
`Fc1ccc2c(c1)C1OC(CN3CCN(c4ccccn4)CC3)CC1c1ccccc1C2` (centres unmarked) [Compound 117]: the IC50 in experiment [1] was 1.48 nM; in experiment [2] it was 4570 nM; in experiment [3], 2.51 nM; in experiment [4], 15.5 nM.
Take `COc1ccccc1N1CCN(C(=O)C2CCN(CC3CC4c5ccccc5Cc5ccc(F)cc5C4O3)CC2)CC1` (centres unmarked) [Compound 203]: the IC50 was 3.63 nM in experiment [1], 4470 nM in experiment [2], 3.09 nM in experiment [3] and 16.6 nM in experiment [4].
Turning to `Fc1ccc2c(c1)C1OC(CN3CCN(Cc4ccco4)CC3)CC1c1ccccc1C2` (centres unmarked) [Compound 60], the IC50 in experiment [1] was 7.76 nM; in experiment [2] it was 1550 nM; in experiment [3] it was 25.1 nM; in experiment [4], 6.31 nM.
Consider `Fc1ccc2c(c1)C1OC(CN3CCN(Cc4cnc[nH]4)CC3)CC1c1ccccc1C2` (centres unmarked) [Compound 66], for which the IC50 was 7.41 nM in experiment [1], 4370 nM in experiment [2], 37.2 nM in experiment [3] and 13.8 nM in experiment [4].
As to `COc1ccc(OCC2CCN(C[C@H]3C[C@@H]4c5ccccc5Cc5ccc(F)cc5[C@@H]4O3)C2)cc1` (some centres unmarked) [Compound 25], the IC50 in experiment [1] was 1.58 nM; in experiment [2], 2190 nM; in experiment [3], 4.68 nM; in experiment [4], 6.03 nM.
As for `O=C(O)C(=O)O.OCC1CCCN(C[C@H]2C[C@@H]3c4ccccc4Cc4ccc(F)cc4[C@@H]3O2)C1` (single isomer, unassigned) [Compound 148], the “5-HT2A pIC50” value in experiment [1] worked out at 8.87. The “NET pIC50” value in experiment [2] is less than 5. Also, the “5-HT2C pIC50” value in experiment [3] was found to be 8.71. Moreover, the “D2L pIC50” value in experiment [4] is recorded as 8.35.
With `Fc1ccc2c(c1)C1OC(CN3CCN(C(=S)Nc4ccccc4)CC3)CC1c1ccccc1C2` (centres unmarked) [Compound 115], the IC50 is 7.41 nM in experiment [1], 490 nM in experiment [2], 22.4 nM in experiment [3] and 112 nM in experiment [4].
With `Fc1ccc2c(c1)[C@@H]1O[C@@H](CN3CC=CC3)C[C@@H]1c1ccccc1C2.O=C(O)C(=O)O` [Compound 266], in experiment [1], the “5-HT2A pIC50” value was found to be 8.09. In addition, the “NET pIC50” value in experiment [2] was 6.61. The “5-HT2C pIC50” value in experiment [3] is 8.42. In addition, the “D2L pIC50” value in experiment [4] turned out to be 7.42.
`Fc1ccc2c(c1)C1OC(CN3CCN(c4cnccn4)CC3)CC1c1ccccc1C2` (centres unmarked) [Compound 123]: the IC50 is 2.75 nM in experiment [1], 2820 nM in experiment [2], 7.24 nM in experiment [3] and 40.7 nM in experiment [4].
Turning to `O=C(NCC(O)CO)C1CCN(CC2CC3c4ccccc4Cc4ccc(F)cc4C3O2)CC1` (centres unmarked) [Compound 179], the IC50 in experiment [1] was less than 10 nM; in experiment [2], more than 10000 nM; in experiment [3], 3.8 nM; in experiment [4] it was 38 nM.
For the compound `Fc1ccc2c(c1)C1OC(CN3CCN(Cc4ccoc4)CC3)CC1c1ccccc1C2.O=C(O)C(F)(F)F` (stereo not drawn) [Compound 61, [2R-(2α, 3aα, 12bβ)]1-(11-fluoro-3,3a,8,12b-tetrahydro-2H-1-oxa-dibenzo[e,h]-azulen-2-ylmethyl)-4-furan-3-ylmethyl-piperazine.trifluoroacetate (1:1)], the “5-HT2A pIC50” value in experiment [1] is 8.03. In experiment [2], the “NET pIC50” value came to 5.88. Moreover, the “5-HT2C pIC50” value in experiment [3] came out at 7.66. In addition, in experiment [4], the “D2L pIC50” value amounted to 8.09.
Consider `OC(COc1ccc(Cl)cc1)CN1CCN(C[C@H]2C[C@@H]3c4ccccc4Cc4ccc(F)cc4[C@@H]3O2)CC1` (some centres unmarked) [Compound 56], for which the IC50 was 6.03 nM in experiment [1], 5620 nM in experiment [2], 10.2 nM in experiment [3] and 26.3 nM in experiment [4].
Turning to `Fc1ccc2c(c1)C1OC(CN3CCN(Cc4ccc5ccccc5c4)CC3)CC1c1ccccc1C2` (centres unmarked) [Compound 74], the IC50 in experiment [1] was 126 nM; in experiment [2] it was 3160 nM; in experiment [3] it was 162 nM; in experiment [4] it was 30.9 nM.
For `O=C(CCN1CCN(CC2CC3c4ccccc4Cc4ccc(F)cc4C3O2)CC1)c1ccc(F)cc1` (centres unmarked) [Compound 52], in that order: 3.39 nM, 490 nM, 2.88 nM and 1.2 nM.
With `CN(C)CCC1CN(C[C@H]2C[C@@H]3c4ccccc4Cc4ccc(F)cc4[C@@H]3O2)CCO1` (some centres unmarked) [Compound 132], the IC50 in experiment [1] is 33.1 nM; in experiment [2], 5750 nM; in experiment [3] it was 33.1 nM; in experiment [4] it was 389 nM.
For `CCNC(=O)OCC1CCN(CC2CC3c4ccccc4Cc4ccc(F)cc4C3O2)C1` (mixture of isomers) [Compound 20], the IC50 in experiment [1] was 0.832 nM; in experiment [2] it was 1050 nM; in experiment [3] it was 1.41 nM; in experiment [4], 3.63 nM.
In the case of `COCC(=O)N1CCN(CC2CC3c4ccccc4Cc4ccc(F)cc4C3O2)CC1` (centres unmarked) [Compound 77], the IC50 in experiment [1] is 3.09 nM; in experiment [2], 3630 nM; in experiment [3], 13.2 nM; in experiment [4], 33.9 nM.
